Measured values reported in the NIST ThermoML archive (doi:10.1016/j.fluid.2015.07.030).
± gives the expanded uncertainty stated by the source.

Assay: refractive index (other wavelength) (dimensionless); xn = mol fraction of the nth substance listed
Conditions: 95.99 kPa, Liquid, Standard Abbe refractometry

OCCOCCOCCO [triethylene glycol] + O
refractive index
Conditions	Wavelength=404.7 nm	Wavelength=435.8 nm	Wavelength=486.1 nm	Wavelength=546.1 nm	Wavelength=587.6 nm	Wavelength=589.3 nm	Wavelength=632.8 nm	Wavelength=644 nm	Wavelength=706.5 nm
308.15 K, x2 = 0	–	–	–	–	–	–	–	1.44909 ± 0.00033	1.44737 ± 0.00033
308.15 K, x2 = 0.1056	–	–	–	–	–	–	–	1.44778 ± 0.00033	1.44608 ± 0.00033
308.15 K, x2 = 0.2069	–	–	–	–	–	–	–	1.44621 ± 0.00032	1.4451 ± 0.00032
308.15 K, x2 = 0.3104	–	–	–	–	–	–	–	1.44392 ± 0.00032	1.44202 ± 0.00032
308.15 K, x2 = 0.4844	–	–	–	–	–	–	–	1.43913 ± 0.00032	1.43745 ± 0.00032
308.15 K, x2 = 0.5016	–	–	–	–	–	–	–	1.43819 ± 0.00032	1.43653 ± 0.00032
308.15 K, x2 = 0.5952	–	–	–	–	–	–	–	1.43167 ± 0.00032	1.42998 ± 0.00032
308.15 K, x2 = 0.6016	–	–	–	–	–	–	–	1.43191 ± 0.00032	1.43023 ± 0.00032
308.15 K, x2 = 0.6788	–	–	–	–	–	–	–	1.42543 ± 0.00032	1.42374 ± 0.00032
308.15 K, x2 = 0.7835	–	–	–	–	–	–	–	1.41701 ± 0.00032	1.41536 ± 0.00032
308.15 K, x2 = 0.8184	–	–	–	–	–	–	–	1.41118 ± 0.00032	1.40951 ± 0.00032
308.15 K, x2 = 0.8473	–	–	–	–	–	–	–	1.4049 ± 0.00032	1.40326 ± 0.00032
308.15 K, x2 = 0.8719	–	–	–	–	–	–	–	1.39819 ± 0.00032	1.39653 ± 0.00032
308.15 K, x2 = 0.8926	–	–	–	–	–	–	–	1.39069 ± 0.00032	1.38904 ± 0.00032
308.15 K, x2 = 0.9106	–	–	–	–	–	–	–	1.38534 ± 0.00032	1.38371 ± 0.00032
308.15 K, x2 = 0.9254	–	–	–	–	–	–	–	1.37569 ± 0.00032	1.37409 ± 0.00032
308.15 K, x2 = 0.9303	–	–	–	–	–	–	–	1.37659 ± 0.00031	1.37498 ± 0.00031
308.15 K, x2 = 0.9391	–	–	–	–	–	–	1.37329 ± 0.00031	1.37297 ± 0.00031	1.37137 ± 0.00031
308.15 K, x2 = 0.951	–	–	–	–	–	–	1.36686 ± 0.00031	1.36654 ± 0.00031	1.36496 ± 0.00031
308.15 K, x2 = 0.9599	–	–	–	–	–	–	1.36065 ± 0.00031	1.36033 ± 0.00031	1.35875 ± 0.00031
308.15 K, x2 = 0.9708	–	–	–	–	–	–	1.35307 ± 0.00031	1.35275 ± 0.00031	1.35119 ± 0.00031
308.15 K, x2 = 0.979	–	–	–	–	–	–	1.34835 ± 0.00031	1.34803 ± 0.00031	1.34647 ± 0.00031
308.15 K, x2 = 0.9867	–	–	–	–	–	–	1.34205 ± 0.00031	1.34175 ± 0.00031	1.34023 ± 0.00031
308.15 K, x2 = 0.9936	–	–	–	–	–	–	1.33605 ± 0.00031	1.33576 ± 0.00031	1.33425 ± 0.00031
313.15 K, x2 = 0	1.46216 ± 0.00033	1.45863 ± 0.00033	1.45448 ± 0.00033	1.45106 ± 0.00033	1.44927 ± 0.00033	1.4492 ± 0.00033	1.44766 ± 0.00033	1.44731 ± 0.00033	1.44561 ± 0.00033
313.15 K, x2 = 0.1056	1.46096 ± 0.00033	1.45744 ± 0.00033	1.4533 ± 0.00033	1.4499 ± 0.00033	1.44812 ± 0.00033	1.44806 ± 0.00033	1.44652 ± 0.00033	1.44616 ± 0.00033	1.44445 ± 0.00033
313.15 K, x2 = 0.2069	1.45931 ± 0.00032	1.45583 ± 0.00032	1.45169 ± 0.00032	1.44831 ± 0.00032	1.44653 ± 0.00032	1.44647 ± 0.00033	1.44494 ± 0.00032	1.44459 ± 0.00032	1.44288 ± 0.00033
313.15 K, x2 = 0.3104	1.45682 ± 0.00032	1.45335 ± 0.00032	1.44921 ± 0.00032	1.44581 ± 0.00032	1.44397 ± 0.00032	1.44244 ± 0.00032	1.44209 ± 0.00032	1.44136 ± 0.00032	1.4404 ± 0.0003
313.15 K, x2 = 0.4844	1.45391 ± 0.00033	1.45049 ± 0.00033	1.44639 ± 0.00033	1.44305 ± 0.00033	1.44124 ± 0.00033	1.44046 ± 0.00032	1.43954 ± 0.00033	1.43899 ± 0.00032	1.43766 ± 0.00033
313.15 K, x2 = 0.5016	1.45102 ± 0.00033	1.44762 ± 0.00033	1.44358 ± 0.00033	1.44028 ± 0.00033	1.43853 ± 0.00033	1.43847 ± 0.00033	1.43695 ± 0.00033	1.43661 ± 0.00033	1.43492 ± 0.00033
313.15 K, x2 = 0.5952	1.44431 ± 0.00032	1.44094 ± 0.00037	1.43703 ± 0.00032	1.43376 ± 0.00032	1.43204 ± 0.00032	1.43197 ± 0.00032	1.43049 ± 0.00032	1.43015 ± 0.00032	1.42848 ± 0.00032
313.15 K, x2 = 0.6016	1.44384 ± 0.00032	1.44387 ± 0.00037	1.43615 ± 0.00032	1.43304 ± 0.00032	1.43132 ± 0.00032	1.43126 ± 0.00032	1.43021 ± 0.00032	1.42952 ± 0.00032	1.42809 ± 0.00032
313.15 K, x2 = 0.6788	1.43802 ± 0.00032	1.43469 ± 0.00032	1.43086 ± 0.00032	1.42768 ± 0.00032	1.42601 ± 0.00032	1.42559 ± 0.00032	1.42446 ± 0.00032	1.42411 ± 0.00032	1.42243 ± 0.00032
313.15 K, x2 = 0.7835	1.42903 ± 0.00032	1.42572 ± 0.00032	1.42205 ± 0.00032	1.41893 ± 0.00032	1.41728 ± 0.00032	1.41722 ± 0.00032	1.41578 ± 0.00032	1.41543 ± 0.00032	1.41372 ± 0.00032
313.15 K, x2 = 0.8184	1.42287 ± 0.00032	1.41965 ± 0.00032	1.41597 ± 0.00032	1.41287 ± 0.00032	1.41125 ± 0.00032	1.41119 ± 0.00032	1.40976 ± 0.00032	1.40942 ± 0.00032	1.40776 ± 0.00032
313.15 K, x2 = 0.8473	1.4172 ± 0.00032	1.41405 ± 0.00032	1.41039 ± 0.00032	1.40736 ± 0.00032	1.40575 ± 0.00032	1.40569 ± 0.00032	1.40427 ± 0.00032	1.40394 ± 0.00032	1.40231 ± 0.00032
313.15 K, x2 = 0.8719	1.41026 ± 0.00032	1.40715 ± 0.00032	1.40359 ± 0.00032	1.40061 ± 0.00032	1.39902 ± 0.00032	1.39896 ± 0.00032	1.39756 ± 0.00032	1.39723 ± 0.00032	1.39559 ± 0.00032
313.15 K, x2 = 0.8926	1.40276 ± 0.00032	1.39972 ± 0.00033	1.39624 ± 0.00032	1.39332 ± 0.00032	1.39177 ± 0.00032	1.39171 ± 0.00032	1.39035 ± 0.00032	1.39002 ± 0.00032	1.3884 ± 0.0003
313.15 K, x2 = 0.9106	1.39726 ± 0.00032	–	1.39088 ± 0.00032	1.38799 ± 0.00032	1.38648 ± 0.00032	1.38642 ± 0.00032	1.38508 ± 0.00032	1.38475 ± 0.00032	1.38313 ± 0.00032
313.15 K, x2 = 0.9254	1.38778 ± 0.00032	1.38484 ± 0.00031	1.38148 ± 0.00032	1.37865 ± 0.00032	1.37712 ± 0.00032	1.37706 ± 0.00032	1.37569 ± 0.00032	1.37537 ± 0.00032	1.37376 ± 0.00032
313.15 K, x2 = 0.9303	1.38834 ± 0.00032	1.38538 ± 0.00032	1.38203 ± 0.00032	1.3792 ± 0.00032	1.37769 ± 0.00032	1.37763 ± 0.00032	1.37629 ± 0.00032	1.37596 ± 0.00032	1.37435 ± 0.00032
313.15 K, x2 = 0.9391	1.38513 ± 0.00031	1.38218 ± 0.00031	1.37884 ± 0.00031	1.37598 ± 0.00031	1.37445 ± 0.00031	1.3744 ± 0.00031	1.37305 ± 0.00031	1.37272 ± 0.00031	1.37112 ± 0.00031
313.15 K, x2 = 0.951	1.37841 ± 0.00032	1.37555 ± 0.00032	1.37228 ± 0.00032	1.36949 ± 0.00032	1.36803 ± 0.00032	1.36794 ± 0.00032	1.36662 ± 0.00032	1.3663 ± 0.00032	1.36471 ± 0.00032
313.15 K, x2 = 0.9599	1.37093 ± 0.00031	1.36813 ± 0.00031	1.36494 ± 0.00031	1.36219 ± 0.00031	1.36072 ± 0.00031	1.36066 ± 0.00031	1.35936 ± 0.00031	1.35904 ± 0.00031	1.35747 ± 0.00031
313.15 K, x2 = 0.9708	1.36388 ± 0.00031	1.36116 ± 0.00031	1.35801 ± 0.00031	1.35533 ± 0.00031	1.35388 ± 0.00031	1.35383 ± 0.00031	1.35253 ± 0.00031	1.35221 ± 0.00031	1.35066 ± 0.00031
313.15 K, x2 = 0.979	1.35918 ± 0.00031	1.3565 ± 0.00031	1.35339 ± 0.00031	1.35071 ± 0.00031	1.34929 ± 0.00031	1.34923 ± 0.00031	1.34796 ± 0.00031	1.34764 ± 0.00031	1.3461 ± 0.00031
313.15 K, x2 = 0.9867	1.35221 ± 0.00031	1.34957 ± 0.00031	1.34651 ± 0.00031	1.34386 ± 0.00031	1.34243 ± 0.00031	1.34238 ± 0.00031	1.34111 ± 0.00031	1.34081 ± 0.00031	1.33932 ± 0.00031
313.15 K, x2 = 0.9936	1.34633 ± 0.00031	1.34376 ± 0.00031	1.34073 ± 0.00031	1.33811 ± 0.00031	1.3367 ± 0.00031	1.33665 ± 0.00031	1.3354 ± 0.00031	1.3351 ± 0.00031	1.33361 ± 0.00031
